Measured values reported in patent US8895032B2, “Dendritic nano-antioxidants” (Central Michigan University, priority 2009, dated 2014).

Columns and labels:
[1] = FRAP assay (reduction of Fe(III) to Fe(II)); type: biochemical; design: Slope of ΔA593 versus concentration: unit not given here; details: for Slope of ΔA593 versus concentration: 37° C.
Protocol: The FRAP assay was performed as previously described (Pulido, et al. J. Agric. Food Chem. 2000, 48, 3396-3402, incorporated herein by reference in its entirety). In the FRAP assay, ferric was reduced by the antioxidant to ferrous via electron transfer (Benzie et al., Anal. Biochem. 1996, 239, 70-76, incorporated herein by reference in its entirety). This assay measured the redox potential of an antioxidant which is used as an estimate of antioxidant efficiency and expressed as a FRAP value. […] The compound 1 as well as the other antioxidants was dissolved in methanol. […] Reaction kinetics of the compound 1 and other antioxidants were obtained by plotting the change in slopes at various times and are shown in FIG. 18. […] This time-dependent increase in absorbance was previously reported (Pulido, et al. J. Agric. Food Chem. 2000, 48, 3396-3402, incorporated herein by reference in its entirety) and was especially significant with polyphenolic compounds. […] However, the FRAP value increased with time, reaching 2.5 in 60 min. […] J. Agric. Food Chem. 2000, 48, 3396-3402, incorporated herein by reference in its entirety). […] EC1 values, and therefore ferric reducing ability, were lower at longer reaction times as expected from the kinetic behavior of the antioxidants (Pulido, et al. J. Agric. Food Chem. 2000, 48, 3396-3402, incorporated herein by reference in its entirety).

DPPH radical assay = test: DPPH radical assay
Protocol: The DPPH assay was one of three electron transfer (ET) assays used to determine the antioxidant potential of compound 1 (described in Example 6) in comparison to its monomeric counterpart (syringaldehyde) as well as popular antioxidants. In an ET assay, an antioxidant donates electron(s) to a molecular probe, thus reducing it. From the assay, thermodynamic conversion of antioxidant to antioxidant radical (oxidation) is measured during a fixed time period.
The reduction of DPPH radical was determined for ascorbic acid, Trolox, syringaldehyde, and the compound 1 described in Example 6 as previously reported (Brand-Williams, et al. Lebensm.-Wiss U.-Technol. 1995, 28, 25-30, incorporated herein by reference in its entirety). In the DPPH assay, DPPH• radical was reduced by the antioxidant in methanol (Brand-Williams, et al. Lebensm.-Wiss U.-Technol. 1995, 28, 25-30, incorporated herein by reference in its entirety). […] The DPPH reagent was made in methanol. Antioxidant sample (10 μL) was added to 1.0 mL of reagent and the absorbance was monitored at 515 nm until a plateau was reached. Antioxidant concentrations were 50 μM syringaldehyde, 12.5 μM Trolox and ascorbic acid, and 5 μM compound 1. All samples were made in methanol and run in triplicates at room temperature.
The DPPH• scavenging capacity of each antioxidant was evaluated from the plot of the percentage DPPH• remaining when the kinetics reached a steady state as a function of the molar ratios of antioxidant to DPPH•. […] Using the curve, EC50 (the amount of antioxidant necessary to decrease the initial DPPH• concentration by 50%), antiradical power (1/EC50, ability to reduce the DPPH•), reaction stoichiometry (EC50×2, the concentration of antioxidant required to reduce 100% of DPPH• radical), and the number of reduced DPPH• per antioxidant molecule (1/stoichiometry) for each antioxidant were calculated as previously described (Brand-Williams, et al. Lebensm.-Wiss U.-Technol. 1995, 28, 25-30, incorporated herein by reference in its entirety) and are depicted in Table 1.
Antioxidant capacity of the compounds was assessed by the DPPH assay (Brand-Williams, et al. Lebensm. Wiss. Technol. 1995, 28, 25, incorporated herein by reference in its entirety). […] In FIG. 22, control with methanol is (X, dashed); compound 1 is (□), compound 2 is (•), compound 3 is (◯), and Trolox (Δ). All antioxidant concentrations were 5 μM.
The free-radical scavenging ability of the antioxidants was evaluated by the DPPH assay, as described above in Example 7.

[2] = Brand-Williams et al.; cited from earlier work
[3] = ABTS radical cation decolorization assay; type: biochemical
Description: We have tested AO activity of G1 (13) using ABTS as a radical source using a previously reported spectroscopic assay. The AO activity of the G1 (13) was compared to those of syringaldehyde, gallic acid, and vitamin C. If the phenolic OH group is the radical scavenging site, the expected AO activity of the G1 (13) should be 4 fold higher than that of syringaldehyde and 1.3 fold higher than that of gallic acid (which has three phenolic OH groups).
ABTS radical cation decolorization assay was used as previously described (Ozgen, et al. J. Agric. Food Chem. 2006, 54, 1151-1157, incorporated herein by reference in its entirety). Like the DPPH assay, this was also a decolorization assay and measured absorbance decrease at 734 nm as the ABTS radical (ABTS•+) is quenched by the antioxidant. The solvent used for the assay was ethanol. ABTS reagent was added to 1.0 mL solvent in a cuvet to bring the absorbance to 0.7. A 10 μL sample of antioxidant was then added, mixed, and the absorbance monitored at 734 nm for 6 min. Antioxidant concentrations were 14.4 μM Trolox, 11.4 μM ascorbic acid, 15.4 μM syringaldehyde, and 3 μM compound 1. The % decrease in absorbance at 6 min was plotted against antioxidant concentrations. The gradient of the line obtained by linear regression for a given antioxidant was divided by that obtained for Trolox to yield Trolox equivalent antioxidant (TEAC) values. All samples were made in ethanol and run in triplicates and at room temperature.

Human LDL = test: Protection of LDL from AAPH oxidation (agarose gel electrophoresis); type: biochemical; details: 1-30 μM, 20 mM AAPH, 21 h, 37° C.
Description: The antioxidant activity of compounds 1, 2, and 3 towards biomolecules was examined by studying their ability to protect LDL, fatty acid, and DNA from free radicals. For LDL, AAPH was used to induce free radical damage. AAPH was used instead of copper (Cu^2) ion for LDL oxidation so that the free radical scavenging activity of the antioxidants could be measured without any pro-oxidant interference caused by metal ions (Salah, N. et al. Arch. Biochem. Biophys. 1995, 322, 339, incorporated herein by reference in its entirety). All solutions were made in ultra-pure water.
Protection of LDL from AAPH free radicals by the antioxidant decreased the anodic shift in a dose-dependent manner (FIG. 23). […] The increased hydrophobicity of compound 3 may be partly responsible for its improved LDL protection over compound 2.
The antioxidant activity of the antioxidants towards biomolecules was examined by studying their ability to protect LDL, lysozyme, and DNA from free radicals. For LDL, AAPH was used to induce free radical damage. AAPH was used instead of Cu^2+ for LDL oxidation so that the free radical scavenging activity of the antioxidants could be measured without any pro-oxidant interference caused by metal ions. The oxidation of human low-density lipoprotein was used as a model for evaluating the ability of the G1 dendrimers as chain-breaking antioxidants for lipid. Oxidation of LDL leads to changes in both the lipid and the protein moieties of the lipoprotein particle. Lipid peroxidation in LDL has been evaluated by a variety of methods. Due to the complexity of events that occur in lipoprotein oxidation, the electrophoretic migration pattern of oxidized LDL is one of the best methods to evaluate the extent of lipoprotein oxidation. LDL was incubated with 20 mM AAPH and increasing concentrations of the G1 dendrimers (0-37 μM in PBS) for 21 h at 37° C. The mixture was then subjected to agarose gel electrophoresis using the Ciba Corning Clinical Electrophoresis System. The agarose gel was stained with Fat Red 7B. In FIG. 30A (top), lane 1 is native LDL, and lanes 2-8 are AAPH-oxidized LDL with 0, 37, 18.5, 9, 4.5, 2 and 1 μM compound 4, respectively. In FIG. 30B (bottom), lane 1 is native LDL, and lanes 2-8 are AAPH-oxidized LDL with 0, 37, 18.5, 9, 4.5, 2 and 1 μM quercetin or Trolox, respectively.

plasmid DNA pBR 322 = test: Protection of plasmid DNA from AAPH damage (agarose electrophoresis); type: biochemical; details: 10 mM AAPH, 37° C., 4 h
Protocol: The effectiveness of the three compounds to protect DNA from AAPH damage was also determined. The plasmid DNA pBR 322 was incubated with AAPH (final concentration 10 mM) at 37° C. for 4 h with or without antioxidants (final concentrations, 0.35-45 μM), after which the samples were subjected to agarose electrophoresis (Sakihama, Y., et al. Toxicology 2002, 177, 67, incorporated herein by reference in its entirety). […] In the absence of AAPH, pBR 322 was mostly in its supercoiled (S) form (small amount of open circular, O, form was also visible, lane 1 FIG. 25). After reaction with AAPH, the DNA was transformed almost entirely into its open circular form (lane 2, FIG. 25). […] No protection was obtained for both compound 1 and quercetin below 5 μM (lanes 7-10, FIG. 25). […] Compound 3 as well as Trolox were ineffective at all concentrations used in the experiment (0.35-45 μM).
Protection of DNA from free radical damage by the antioxidant dendrimers (compounds 4, 5, and 1) was also evaluated. Plasmid DNA (pBR 322) samples, were incubated with AAPH (final concentration 10 mM) at 37° C. for 4 h with antioxidants (final concentrations, 0.35-45 μM) and subjected to agarose electrophoresis. […] The native DNA was mostly in its supercoiled (S) form (small amount of open circular, O, form was also visible, lane 1, FIG. 31). In the presence of AAPH, the DNA was transformed almost entirely into its O form (lane 2, FIG. 31). […] Negligible DNA protection was afforded by all three dendrimers at ≦2.5 μM (lanes 7-10, FIG. 31). Under similar conditions, Trolox as well as the starting materials for dendrimer synthesis were ineffective at all concentrations.

pBR 322 DNA with Cu2+ = test: Pro-oxidant effect: oxidation of DNA with copper (II) ion; details: 10 μM Cu2+, 37° C., 1 h
Protocol: The pro-oxidant effect of compounds 1, 2, and 3 was examined by oxidation of DNA with copper (II) ion. pBR 322 was incubated with 10 μM Cu^2+ at 37° C. for 1 h in the presence of compound 1, 2, or 3 (final concentrations between 0.35 and 45 μM). […] Lane 1 is native DNA, and lanes 2-10 are Cu^2+-oxidized DNA with 0, 45, 23, 11, 5, 3, 1.5, 0.7, and 0.35 μM antioxidant, respectively.
This was performed by co-incubation of DNA (pBR 322), copper (II) ion and antioxidant. […] This ultimately forms DNA-Cu(I)OOH, initiating a free radical cascade by which DNA damage occurs. pBR 322 was incubated with 10 μM Cu^2+ in the presence of antioxidants (0-45 μM) at 37° C. for 1 h and subjected to agarose electrophoresis. […] In FIG. 32, lane 1 is native DNA, and lanes 2-10 are Cu^2+ oxidized DNA with 0, 45, 23, 11, 5, 3, 1.5, 0.7, and 0.35 μM antioxidant, respectively. […] However, it should be noted that physiological concentrations of copper are less than 10-20 μM in plasma and approximately […] for the cation in cells.

## O=C1O[C@H]([C@@H](O)CO)C(O)=C1O [Ascorbic acid, ascorbic acid]
[1]; 5 min
  Antioxidant Capacity Relative to Trolox, FRAP 5 min: 0.91
  EC1 (concentration with ferric-TPTZ reducing ability equivalent to 1 mM FeSO4.7H2O): 505 µM
[1]; 5 min, listed as Ascorbic Acid
  FRAP value relative to Fe(II): 2.0
[1]; 5 min, listed as ascorbic acid
  FRAP value relative to Fe(II): ~2
[1]; 15 min
  FRAP value relative to Fe(II): 2.1
[1]; 30 min
  FRAP value relative to Fe(II): 2.3
[1]; 60 min
  Antioxidant Capacity Relative to Trolox, FRAP 60 min: 1.1
  EC1 (concentration with ferric-TPTZ reducing ability equivalent to 1 mM FeSO4.7H2O): 395 µM
  FRAP value relative to Fe(II): 2.5
[1]; Reaction time 5 min
  Slope of ΔA593 versus concentration: 0.0238
[1]; Reaction time 15 min
  Slope of ΔA593 versus concentration: 0.0255
[1]; Reaction time 30 min
  Slope of ΔA593 versus concentration: 0.0272
[1]; Reaction time 60 min
  Slope of ΔA593 versus concentration: 0.0305
DPPH radical assay
  # of DDPH• reduced per antioxidant molecule (1/stoichiometry): 1.8
  Antioxidant Capacity Relative to Trolox, DPPH: 1
[2]
  ARP, previously reported value: 3.70
  Stoichiometry, previously reported value: 0.54
  number of reduced DPPH• per antioxidant molecule, previously reported value: 1.85
[3]
  Antioxidant Capacity Relative to Trolox, ABTS: 0.90
[3]; 14.4 μM Trolox, 11.4 μM ascorbic acid
  time to reach a plateau of ABTS•+ absorbance suppression: one
[3]; final concentration in the cuvet, read-out: concentration at which 50% inhibition of ABTS•+ was observed
  IC50: ~13 µM
[3]; linear regression, concentration in μM
  Slope of % decrease in absorbance at 6 min versus antioxidant concentration: 3.6
[3]; slope divided by that of Trolox, % decrease in A734 at 6 min, ethanol
  TEAC: 0.9

## O=c1c(O)c(-c2ccc(O)c(O)c2)oc2cc(O)cc(O)c12 [quercetin]
Human LDL
  protection of LDL at all antioxidant concentrations: ineffective
DPPH radical assay; read-out: DPPH IC50 at 120 min, Example 15
  IC50: 10 µM
Plasmid DNA pBR 322; 5 μM antioxidant
  DNA protection: not
Plasmid DNA pBR 322; below 5 μM antioxidant
  DNA protection: No protection
pBR 322 DNA with Cu2+; 11-45 μM antioxidant
  pro-oxidant DNA damage: DNA damage was clearly observed
pBR 322 DNA with Cu2+; between 3 and 5 μM antioxidant
  pro-oxidant effect: more pronounced pro-oxidant effect than compound 1
